Values joined by “and” are separate entries in the source; they are usually repeats but may differ in a detail not shown here. Identical values can stand only once. After the bases stand the sugars from the 5' end (letter, count) and the backbone: PS all phosphorothioate, else s phosphorothioate and o phosphodiester by linkage. Methylation of C is not given here. e = 2'-O-(2-methoxyethyl) (MOE); d = 2'-deoxy (DNA)

These results are taken from the OligoGym collection.

This data set concerns the target DGAT2. To be noted: ASO.

Consider “CCTCATCTCAGTGCCCAAAG (sugars e5 d10 e5, PS)”, for which the target mRNA inhibition was found to be 25% (HepG2, 2.5 µM) and 63% (HepG2, 10 µM). The corresponding values for “AAACTTAGGCATGCTTCCTC (sugars e5 d10 e5, PS)” are 84% and 56%.

With “TTTGGATAGTCGATTTACCA (sugars e5 d10 e5, PS)”, the target mRNA inhibition (HepG2, 0.12 µM) was 41%.

“GCATGCTTCCTCCCACTTCA (sugars e5 d10 e5, PS)”: the target mRNA inhibition worked out at 84% (HepG2, 2.5 µM) and 76% (HepG2, 10 µM). Where the note is “HepG2, 0.12 µM”, “GATGCTGGATCCAGTGCCTA (sugars e5 d10 e5, PS)” gave a target mRNA inhibition of 53%. “CAGCCTGGACAAGTCCTGCC (sugars e3 d14 e3, PS)”: the target mRNA inhibition (HepG2, 0.12 µM) was determined as 72%. For “CCACAGCGATAATCACA (sugars e3 d10 e4, PS)”, the target mRNA inhibition by setting is: (HepG2, 2.5 µM) 63% and 60%; (HepG2, 10 µM) 84% and 75%. “TGCTGCTCAGAAGGCCAGGC (sugars e5 d10 e5, PS)” registered a target mRNA inhibition (HepG2, 0.12 µM) of 42%.

Turning to “ATCACAATATATGGGCAAGC (sugars e5 d10 e5, PS)”, the target mRNA inhibition was 83% and 86% (HepG2, 2.5 µM); 92% and 94% (HepG2, 10 µM). For “GCGCCACACAGCCCAGTTTC (sugars e5 d10 e5, PS)”, the target mRNA inhibition (HepG2, 0.12 µM) was found to be 31%. With “TCTCGAATATCCCTAATAAC (sugars e5 d10 e5, PS)”, the target mRNA inhibition (HepG2, 2.5 µM) was 34% and the target mRNA inhibition (HepG2, 10 µM) amounted to 87%. For “ATCCATGTCAGAGAGGCTCA (sugars e5 d10 e5, PS)”, the target mRNA inhibition amounted to 66% (HepG2, 2.5 µM) and 88% (HepG2, 10 µM). As for “GAGGCCAAGGACAGAGGTTC (sugars e5 d10 e5, PS)”, the target mRNA inhibition by setting is: (HepG2, 2.5 µM) 66%; (HepG2, 10 µM) 81%. “TCCACCTAGCTCATGGTGGC (sugars e5 d10 e5, PS)” came in with a target mRNA inhibition (HepG2, 0.12 µM) of 21%. Sequence “GAGCTCAGAGACTCAGCCGC (sugars e5 d10 e5, PS)” registered a target mRNA inhibition (HepG2, 0.12 µM) of 81%.

For the sequence “CTTCTTAAAAAAGACCTAAC (sugars e5 d10 e5, PS)”, where the note is “HepG2, 0.12 µM”, the target mRNA inhibition is 26%. As to “AAAATCCATGTCAGAGAGGC (sugars e5 d10 e5, PS)”, the target mRNA inhibition (HepG2, 2.5 µM) was 64% and the target mRNA inhibition (HepG2, 10 µM) came to 90%. The corresponding values for “ACAGCTGTGATGACTTCCCA (sugars e5 d10 e5, PS)” are 88% and 77%. With “GGACAGGAGGGTCACACACA (sugars e5 d10 e5, PS)”, the target mRNA inhibition (HepG2, 0.12 µM) came to 45%. Consider “GCACTCTCTCTGCACACTCC (sugars e5 d10 e5, PS)”, for which the target mRNA inhibition (HepG2, 2.5 µM) was determined as 61% and the target mRNA inhibition (HepG2, 10 µM) is 87%. The corresponding values for “GCGCGATTCACTGAGGACCT (sugars e5 d10 e5, PS)” are 75% and 76%. With “TGGGAACTTCTTGCTCACTT (sugars e5 d10 e5, PS)”, where the note is “HepG2, 0.12 µM”, the target mRNA inhibition was found to be 43%. The same measure, in the same setting: the value for “CAGAAGGCACCCAGGCCCAT (sugars e5 d10 e5, PS)” was 33%; that for “AAAAACATGACAGCCAGGGT (sugars e5 d10 e5, PS)” was 31%; that for “CAGGCCACTCCCAGTACAAG (sugars e5 d10 e5, PS)” was 1%.

Consider “GCAGGACCCCGGAGTAGGCG (sugars e2 d13 e5, PS)”, for which the target mRNA inhibition (HepG2, 0.12 µM) is 68%. In turn, “GCTTCACCAGGGCCTCCATG (sugars e5 d10 e5, PS)” came in with a target mRNA inhibition (HepG2, 0.12 µM) of 31%; a target mRNA inhibition (HepG2, 2.5 µM) of 34%; a target mRNA inhibition (HepG2, 10 µM) of 57%; a target mRNA inhibition (HepG2, 20 µM) of 80%.

“GTCAGCAGGTTGTGTGTCTT (sugars e3 d14 e3, PS)” gave a target mRNA inhibition (HepG2, 0.12 µM) of 61%.

As for “GTCCTCCTTAGCTTTAATCC (sugars e5 d10 e5, PS)”, the target mRNA inhibition is, setting by setting: (HepG2, 2.5 µM) 62%; (HepG2, 10 µM) 85%. For the setting “HepG2, 0.12 µM”, “CATTGCCACTCCCATTCTTT (sugars e5 d10 e5, PS)” registered a target mRNA inhibition of 44%. Take “ATGGAGCTCAGAGACTCAGC (sugars e5 d10 e5, PS)”: for the setting “HepG2, 0.12 µM”, the target mRNA inhibition turned out to be 78%. For the setting “HepG2, 0.12 µM”, “CATAGGCCAGGAGGAAGAGT (sugars e5 d10 e5, PS)” came in with a target mRNA inhibition of 35%.

“ACACGCAGACCAGGACAGCT (sugars e5 d10 e5, PS)” returned a target mRNA inhibition (HepG2, 0.12 µM) of 46%.

On to “TGGCTCAGTTCACCTCCAGG (sugars e5 d10 e5, PS)”, for which the target mRNA inhibition is, setting by setting: (HepG2, 2.5 µM) 53%; (HepG2, 10 µM) 86%. For the sequence “GGTCTGGGAACAGCAGCATC (sugars e5 d10 e5, PS)”, the target mRNA inhibition reads like this: (HepG2, 2.5 µM) 59%; (HepG2, 10 µM) 79%. “ATGGGAAAGTAGTCTCGAAA (sugars e5 d10 e5, PS)” showed a target mRNA inhibition (HepG2, 0.12 µM) of 0%. Still for that read-out and setting: the value for “CAGGCATGGAGCTCAGAGAC (sugars e2 d13 e5, PS)” was 70%. Regarding “AGTCAAACCTAGGTTCAGAC (sugars e5 d10 e5, PS)”, the target mRNA inhibition (HepG2, 2.5 µM) amounted to 81% and the target mRNA inhibition (HepG2, 10 µM) was 55%. Take “AAGCCTGGATGGTGGTTGCA (sugars e5 d10 e5, PS)”: the target mRNA inhibition reads like this: (HepG2, 2.5 µM) 82% and 66%; (HepG2, 10 µM) 91% and 82%.
